Results from paper PMC6747015, “Structure–function study of a novel inhibitor of the casein kinase 1 family in Arabidopsis thaliana” (Plant Direct, 2019).

Columns and labels:
CPK family = assay: AMI‐329 bead binding with AMI‐331 competitor, CPK family; design: species or system Arabidopsis thaliana
Protocol: (§1) Screening for proteins bound to AMI‐329 beads was done by a method similar to what has previously been described (Uehara et al., 2019). Briefly, two‐week‐old seedlings grown under LD conditions were harvested at time points ZT2, ZT6, ZT9, and ZT17, and stored at −80°C. Proteins from the frozen plant samples were incubated with 0, 5, or 50 µM of AMI‐331 at 4°C for 30 min with rotary mixing. Two technical replicates were used for each experiment. PBS‐washed AMI‐329 beads were added to the protein samples and gently rotated at 4°C for 1 hr. AMI‐329 bead resins were washed with bead buffer (Uehara et al., 2019) six times. The washed resins were suspended in SDS sample buffer and boiled for 8 min. Protein samples were in‐gel‐digested as previously described (Uehara et al., 2019). Peptides were analyzed with a Q Exactive hybrid quadrupole‐orbitrap mass spectrometer (Thermo Fisher Scientific), as described previously (Uehara et al., 2019). MS/MS spectra were interpreted, and peak lists were generated using Proteome Discoverer 2.0.0.802 (Thermo Fisher Scientific). Searches were performed using SEQUEST (Thermo Fisher Scientific) against the Arabidopsis thaliana (TAIR TaxID = 3,702) peptide sequence database. […]
(§2) To examine other potential targets of AMI‐331, we analyzed the spectra for PHA767491 target proteins (Uehara et al., 2019). […]

[1] = system: all members of the CK1 family and an additional ten non‐CK1 proteins; assay: AMI‐329 bead binding with AMI‐331 competitor, the 23 AMI‐331‐bound proteins; design: species or system Arabidopsis thaliana
Protocol: as §1, with “2019).” for “2019). MS/MS spectra were interpreted, and peak lists were generated using Proteome Discoverer 2.0.0.802 (Thermo Fisher Scientific). Searches were performed using SEQUEST (Thermo Fisher Scientific) against the Arabidopsis thaliana (TAIR TaxID = 3,702) peptide sequence database.”
(§3) However, another possible mechanism for the strong AMI‐331 biological activity in vivo is that it targets proteins other than the CK1 family for period lengthening. […] It is noteworthy that kinase AT4G08800 is very similar to the CKL family, but the ATP‐binding pocket of mammalian CK1 as determined by its crystal structure (Shinohara et al., 2017) was absent from AT4G08800, as shown in an Araport 11 model (https://www.araport.org). […]

Unknown AT5G42765 = assay: AMI‐329 bead binding with AMI‐331 competitor, unknown protein AT5G42765; design: species or system Arabidopsis thaliana
Protocol: as §1, with “2019).” for “2019). MS/MS spectra were interpreted, and peak lists were generated using Proteome Discoverer 2.0.0.802 (Thermo Fisher Scientific). Searches were performed using SEQUEST (Thermo Fisher Scientific) against the Arabidopsis thaliana (TAIR TaxID = 3,702) peptide sequence database.”
as §3

[2] = system: ATSK (GSK3) family proteins; assay: AMI‐329 bead binding with AMI‐331 competitor, ATSK family; design: species or system Arabidopsis thaliana; conditions: 50 µM AMI‐331 as competitor
Protocol: as §1, §2

CKL13 (AT1G04440) = molecular target: T1, CKL13 (AT1G04440) (Arabidopsis thaliana, UniProt Q5XF24); assay: AMI‐329 bead binding with AMI‐331 competitor, CKL13
T1 construct: from tissue; host or cells: Arabidopsis seedlings, two weeks old
T1 sequence (Q5XF24 whole entry): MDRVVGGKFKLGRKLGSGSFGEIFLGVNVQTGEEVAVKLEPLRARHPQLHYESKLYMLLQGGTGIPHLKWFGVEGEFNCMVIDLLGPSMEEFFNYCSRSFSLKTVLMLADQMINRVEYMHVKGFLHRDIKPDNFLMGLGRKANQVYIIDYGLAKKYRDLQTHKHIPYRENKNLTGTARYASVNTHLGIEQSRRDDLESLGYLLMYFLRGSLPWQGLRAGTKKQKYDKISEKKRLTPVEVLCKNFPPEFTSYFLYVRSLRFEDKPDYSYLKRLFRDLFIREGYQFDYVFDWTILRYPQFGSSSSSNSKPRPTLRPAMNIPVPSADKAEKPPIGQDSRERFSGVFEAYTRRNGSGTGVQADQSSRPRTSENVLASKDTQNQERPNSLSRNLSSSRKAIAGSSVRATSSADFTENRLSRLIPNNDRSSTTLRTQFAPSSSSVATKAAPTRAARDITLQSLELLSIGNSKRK
Protocol: as §1, with “2019).” for “2019). MS/MS spectra were interpreted, and peak lists were generated using Proteome Discoverer 2.0.0.802 (Thermo Fisher Scientific). Searches were performed using SEQUEST (Thermo Fisher Scientific) against the Arabidopsis thaliana (TAIR TaxID = 3,702) peptide sequence database.”
as §3

CKL6 (AT4G28540) = molecular target: T2, CKL6 (AT4G28540) (Arabidopsis thaliana, UniProt Q8LPJ1); assay: AMI‐329 bead binding with AMI‐331 competitor, CKL6
T2 construct: from tissue; host or cells: Arabidopsis seedlings, two weeks old
T2 sequence (Q8LPJ1 whole entry): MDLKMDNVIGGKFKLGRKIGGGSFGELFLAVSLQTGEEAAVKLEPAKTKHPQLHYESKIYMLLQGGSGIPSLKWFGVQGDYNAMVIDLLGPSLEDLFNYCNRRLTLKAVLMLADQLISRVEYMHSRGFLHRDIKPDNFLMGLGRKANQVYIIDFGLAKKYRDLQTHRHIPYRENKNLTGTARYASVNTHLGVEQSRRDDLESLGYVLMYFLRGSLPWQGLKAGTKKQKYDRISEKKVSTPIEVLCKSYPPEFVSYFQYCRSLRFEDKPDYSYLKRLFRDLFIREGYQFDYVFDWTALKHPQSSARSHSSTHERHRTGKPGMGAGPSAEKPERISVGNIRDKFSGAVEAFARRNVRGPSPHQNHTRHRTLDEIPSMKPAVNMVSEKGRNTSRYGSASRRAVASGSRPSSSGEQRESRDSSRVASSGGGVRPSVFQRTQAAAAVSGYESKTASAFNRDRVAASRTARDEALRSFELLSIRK
Protocol: as §1, with “2019).” for “2019). MS/MS spectra were interpreted, and peak lists were generated using Proteome Discoverer 2.0.0.802 (Thermo Fisher Scientific). Searches were performed using SEQUEST (Thermo Fisher Scientific) against the Arabidopsis thaliana (TAIR TaxID = 3,702) peptide sequence database.”
as §3

Kinase AT4G34500 = molecular target: T3, Kinase AT4G34500 (Arabidopsis thaliana, UniProt Q6NKZ9); assay: AMI‐329 bead binding with AMI‐331 competitor, kinase AT4G34500
T3 construct: from tissue; host or cells: Arabidopsis seedlings, two weeks old
T3 sequence (Q6NKZ9 whole entry): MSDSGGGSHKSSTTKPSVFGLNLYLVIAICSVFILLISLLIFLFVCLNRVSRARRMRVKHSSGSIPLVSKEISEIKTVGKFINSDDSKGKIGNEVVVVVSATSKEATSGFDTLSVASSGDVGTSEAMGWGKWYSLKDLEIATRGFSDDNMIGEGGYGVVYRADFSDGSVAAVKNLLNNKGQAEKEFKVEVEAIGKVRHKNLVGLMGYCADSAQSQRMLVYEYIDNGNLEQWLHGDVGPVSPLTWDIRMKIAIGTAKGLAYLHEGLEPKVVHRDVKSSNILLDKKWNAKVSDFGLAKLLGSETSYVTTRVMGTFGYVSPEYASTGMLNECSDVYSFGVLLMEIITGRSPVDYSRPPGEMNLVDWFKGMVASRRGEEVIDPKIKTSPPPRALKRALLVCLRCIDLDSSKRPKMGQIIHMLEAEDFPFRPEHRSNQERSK
Protocol: as §1, with “2019).” for “2019). MS/MS spectra were interpreted, and peak lists were generated using Proteome Discoverer 2.0.0.802 (Thermo Fisher Scientific). Searches were performed using SEQUEST (Thermo Fisher Scientific) against the Arabidopsis thaliana (TAIR TaxID = 3,702) peptide sequence database.”
as §3

CKL9 (AT1G03930) = molecular target: T4, CKL9 (AT1G03930) (Arabidopsis thaliana, UniProt Q9ZWB3); assay: AMI‐329 bead binding with AMI‐331 competitor, CKL9
T4 construct: from tissue; host or cells: Arabidopsis seedlings, two weeks old
T4 sequence (Q9ZWB3 whole entry): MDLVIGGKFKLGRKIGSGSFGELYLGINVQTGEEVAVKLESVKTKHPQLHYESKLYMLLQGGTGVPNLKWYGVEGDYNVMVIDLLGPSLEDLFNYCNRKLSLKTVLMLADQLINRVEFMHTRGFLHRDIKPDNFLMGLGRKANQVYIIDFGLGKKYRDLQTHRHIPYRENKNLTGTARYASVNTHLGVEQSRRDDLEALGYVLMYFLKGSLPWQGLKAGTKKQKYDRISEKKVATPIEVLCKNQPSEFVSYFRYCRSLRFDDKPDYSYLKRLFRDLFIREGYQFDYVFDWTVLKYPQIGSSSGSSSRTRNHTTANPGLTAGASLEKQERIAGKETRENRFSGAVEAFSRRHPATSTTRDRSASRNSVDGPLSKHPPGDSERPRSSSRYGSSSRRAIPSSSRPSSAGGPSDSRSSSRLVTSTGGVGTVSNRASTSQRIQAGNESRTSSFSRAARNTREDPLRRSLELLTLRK
Protocol: as §1, with “2019).” for “2019). MS/MS spectra were interpreted, and peak lists were generated using Proteome Discoverer 2.0.0.802 (Thermo Fisher Scientific). Searches were performed using SEQUEST (Thermo Fisher Scientific) against the Arabidopsis thaliana (TAIR TaxID = 3,702) peptide sequence database.”
as §3

HYD1 (AT1G20050) = molecular target: T5, HYD1 (AT1G20050) (Arabidopsis thaliana, UniProt O48962); assay: AMI‐329 bead binding with AMI‐331 competitor, HYD1
T5 construct: from tissue; host or cells: Arabidopsis seedlings, two weeks old
T5 sequence (O48962 whole entry): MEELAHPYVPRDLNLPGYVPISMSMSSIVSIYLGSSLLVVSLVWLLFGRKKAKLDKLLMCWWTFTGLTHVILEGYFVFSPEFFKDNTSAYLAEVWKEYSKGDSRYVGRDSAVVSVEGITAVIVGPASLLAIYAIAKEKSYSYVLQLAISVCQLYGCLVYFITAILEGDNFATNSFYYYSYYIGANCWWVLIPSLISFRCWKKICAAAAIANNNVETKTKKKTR
Protocol: as §1, with “2019).” for “2019). MS/MS spectra were interpreted, and peak lists were generated using Proteome Discoverer 2.0.0.802 (Thermo Fisher Scientific). Searches were performed using SEQUEST (Thermo Fisher Scientific) against the Arabidopsis thaliana (TAIR TaxID = 3,702) peptide sequence database.”
as §3

RNA‐binding AT3G15010 = molecular target: T6, RNA‐binding AT3G15010 (Arabidopsis thaliana, UniProt Q9LKA4); assay: AMI‐329 bead binding with AMI‐331 competitor, RNA‐binding protein AT3G15010
T6 construct: Proteins from the frozen plant samples were incubated with 0, 5, or 50 µM of AMI‐331; from tissue; host or cells: two-week-old Arabidopsis seedlings (protein lysate)
T6 sequence (Q9LKA4 whole entry): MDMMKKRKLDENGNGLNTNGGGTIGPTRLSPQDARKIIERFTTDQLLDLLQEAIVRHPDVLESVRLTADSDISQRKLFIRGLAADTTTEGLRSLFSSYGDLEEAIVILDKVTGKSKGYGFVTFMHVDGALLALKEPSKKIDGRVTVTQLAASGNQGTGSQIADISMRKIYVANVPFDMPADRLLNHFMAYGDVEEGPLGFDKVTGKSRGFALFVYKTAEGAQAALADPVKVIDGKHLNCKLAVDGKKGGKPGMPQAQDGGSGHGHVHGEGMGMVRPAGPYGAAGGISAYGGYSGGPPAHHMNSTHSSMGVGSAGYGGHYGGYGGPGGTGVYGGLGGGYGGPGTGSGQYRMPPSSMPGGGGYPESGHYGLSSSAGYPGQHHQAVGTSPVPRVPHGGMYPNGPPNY
Protocol: as §1, with “2019).” for “2019). MS/MS spectra were interpreted, and peak lists were generated using Proteome Discoverer 2.0.0.802 (Thermo Fisher Scientific). Searches were performed using SEQUEST (Thermo Fisher Scientific) against the Arabidopsis thaliana (TAIR TaxID = 3,702) peptide sequence database.”
as §3

CKL11 (AT4G14340) = molecular target: T7, CKL11 (AT4G14340) (Arabidopsis thaliana, UniProt Q39050); assay: AMI‐329 bead binding with AMI‐331 competitor, CKL11
T7 construct: from tissue; host or cells: Arabidopsis seedlings, two weeks old
T7 sequence (Q39050 whole entry): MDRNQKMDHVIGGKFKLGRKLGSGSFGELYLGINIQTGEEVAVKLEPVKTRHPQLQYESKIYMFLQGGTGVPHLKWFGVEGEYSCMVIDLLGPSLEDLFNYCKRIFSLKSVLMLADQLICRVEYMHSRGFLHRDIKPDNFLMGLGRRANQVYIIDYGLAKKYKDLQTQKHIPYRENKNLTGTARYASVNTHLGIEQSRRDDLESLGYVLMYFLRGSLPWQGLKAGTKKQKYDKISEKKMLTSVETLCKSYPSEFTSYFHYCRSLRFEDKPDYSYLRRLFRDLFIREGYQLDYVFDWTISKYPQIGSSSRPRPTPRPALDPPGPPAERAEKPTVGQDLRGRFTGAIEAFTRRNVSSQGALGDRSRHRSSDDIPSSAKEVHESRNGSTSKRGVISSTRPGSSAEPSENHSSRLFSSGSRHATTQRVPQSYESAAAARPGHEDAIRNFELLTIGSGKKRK
Protocol: as §1, with “2019).” for “2019). MS/MS spectra were interpreted, and peak lists were generated using Proteome Discoverer 2.0.0.802 (Thermo Fisher Scientific). Searches were performed using SEQUEST (Thermo Fisher Scientific) against the Arabidopsis thaliana (TAIR TaxID = 3,702) peptide sequence database.”
as §3

NRPB3 (AT2G15430) = molecular target: T8, NRPB3 (AT2G15430) (Arabidopsis thaliana, UniProt Q39211); assay: AMI‐329 bead binding with AMI‐331 competitor, NRPB3
T8 construct: from tissue; host or cells: Arabidopsis seedlings, two weeks old
T8 sequence (Q39211 whole entry): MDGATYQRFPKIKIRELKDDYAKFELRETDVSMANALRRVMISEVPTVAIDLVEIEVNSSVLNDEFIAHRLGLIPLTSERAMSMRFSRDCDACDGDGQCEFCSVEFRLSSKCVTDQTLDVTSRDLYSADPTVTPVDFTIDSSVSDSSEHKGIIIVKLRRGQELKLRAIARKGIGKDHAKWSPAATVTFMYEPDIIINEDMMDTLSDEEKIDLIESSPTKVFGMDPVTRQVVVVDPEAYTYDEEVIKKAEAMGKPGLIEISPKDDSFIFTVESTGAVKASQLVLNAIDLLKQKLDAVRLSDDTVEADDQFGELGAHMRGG
Protocol: as §1, with “2019).” for “2019). MS/MS spectra were interpreted, and peak lists were generated using Proteome Discoverer 2.0.0.802 (Thermo Fisher Scientific). Searches were performed using SEQUEST (Thermo Fisher Scientific) against the Arabidopsis thaliana (TAIR TaxID = 3,702) peptide sequence database.”
as §3

Reductase C (AT2G41680) = molecular target: T9, Reductase C (AT2G41680) (Arabidopsis thaliana, UniProt O22229); assay: AMI‐329 bead binding with AMI‐331 competitor, reductase C
T9 construct: Proteins from the frozen plant samples were incubated with 0, 5, or 50 µM of AMI‐331; from tissue; host or cells: two-week-old Arabidopsis seedlings (protein lysate)
T9 sequence (O22229 68-529): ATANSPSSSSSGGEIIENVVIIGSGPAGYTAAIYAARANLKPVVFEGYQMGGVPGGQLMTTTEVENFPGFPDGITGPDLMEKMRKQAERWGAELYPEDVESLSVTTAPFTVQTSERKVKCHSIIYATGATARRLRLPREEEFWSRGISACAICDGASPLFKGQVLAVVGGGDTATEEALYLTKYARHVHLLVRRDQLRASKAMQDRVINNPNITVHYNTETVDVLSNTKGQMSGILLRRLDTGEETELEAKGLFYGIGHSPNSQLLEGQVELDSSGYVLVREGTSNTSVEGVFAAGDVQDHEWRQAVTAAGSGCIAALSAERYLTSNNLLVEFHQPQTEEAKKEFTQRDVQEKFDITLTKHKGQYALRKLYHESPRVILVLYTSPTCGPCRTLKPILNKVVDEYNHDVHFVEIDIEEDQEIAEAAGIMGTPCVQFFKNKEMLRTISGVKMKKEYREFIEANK
Protocol: as §1, with “2019).” for “2019). MS/MS spectra were interpreted, and peak lists were generated using Proteome Discoverer 2.0.0.802 (Thermo Fisher Scientific). Searches were performed using SEQUEST (Thermo Fisher Scientific) against the Arabidopsis thaliana (TAIR TaxID = 3,702) peptide sequence database.”
as §3

CKL10 (AT3G23340) = molecular target: T10, CKL10 (AT3G23340) (Arabidopsis thaliana, UniProt Q9LW62); assay: AMI‐329 bead binding with AMI‐331 competitor, CKL10
T10 construct: from tissue; host or cells: Arabidopsis seedlings, two weeks old
T10 sequence (Q9LW62 whole entry): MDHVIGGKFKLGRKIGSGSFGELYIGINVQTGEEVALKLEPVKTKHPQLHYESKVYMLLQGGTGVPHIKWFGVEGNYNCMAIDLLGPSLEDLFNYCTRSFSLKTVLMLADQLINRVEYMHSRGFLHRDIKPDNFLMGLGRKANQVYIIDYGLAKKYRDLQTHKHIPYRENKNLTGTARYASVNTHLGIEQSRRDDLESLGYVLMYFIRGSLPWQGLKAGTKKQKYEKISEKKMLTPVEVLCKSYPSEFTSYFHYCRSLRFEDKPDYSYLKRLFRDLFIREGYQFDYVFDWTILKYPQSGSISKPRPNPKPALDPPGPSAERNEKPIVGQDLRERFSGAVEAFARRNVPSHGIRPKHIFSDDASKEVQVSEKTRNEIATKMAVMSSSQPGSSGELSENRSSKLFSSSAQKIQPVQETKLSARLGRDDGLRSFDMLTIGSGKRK
Protocol: as §1, with “2019).” for “2019). MS/MS spectra were interpreted, and peak lists were generated using Proteome Discoverer 2.0.0.802 (Thermo Fisher Scientific). Searches were performed using SEQUEST (Thermo Fisher Scientific) against the Arabidopsis thaliana (TAIR TaxID = 3,702) peptide sequence database.”
as §3

C#CCn1c2c(c(Br)c1-c1ccncc1)C(=O)NCC2.Cl [AMI‐331]
Target status from enrichment in 0 µM versus 5 or 50 µM samples (CPK family): not a target | Spectra on AMI‐329 beads compared to the control sample without competitor ([1]; 5 µM AMI‐331 as competitor): 0% to 7% | Spectra on AMI‐329 beads ([1]; 50 µM AMI‐331 as competitor): absent | Spectra (PSMs) AMI‐329 beads bound (Unknown AT5G42765; competitor AMI‐331 5 µM): 0 PSMs | Spectra (PSMs) AMI‐329 beads bound (Unknown AT5G42765; competitor AMI‐331 50 µM): 0 PSMs | Spectra on AMI‐329 beads relative to 0 µM sample [2]: 0%–13% | Spectra (PSMs) AMI‐329 beads bound (CKL13 (AT1G04440); competitor AMI‐331 5 µM): 0 PSMs | Spectra (PSMs) AMI‐329 beads bound (CKL13 (AT1G04440); competitor AMI‐331 50 µM): 0 PSMs | Spectra (PSMs) AMI‐329 beads bound (CKL6 (AT4G28540); competitor AMI‐331 5 µM): 1 PSMs | Spectra (PSMs) AMI‐329 beads bound (CKL6 (AT4G28540); competitor AMI‐331 50 µM): 0 PSMs | Spectra (PSMs) AMI‐329 beads bound (Kinase AT4G34500; competitor AMI‐331 5 µM): 0 PSMs | Spectra (PSMs) AMI‐329 beads bound (Kinase AT4G34500; competitor AMI‐331 50 µM): 0 PSMs | Spectra (PSMs) AMI‐329 beads bound (CKL9 (AT1G03930); competitor AMI‐331 5 µM): 1 PSMs | Spectra (PSMs) AMI‐329 beads bound (CKL9 (AT1G03930); competitor AMI‐331 50 µM): 0 PSMs | Spectra (PSMs) AMI‐329 beads bound (HYD1 (AT1G20050); competitor AMI‐331 5 µM): 0 PSMs | Spectra (PSMs) AMI‐329 beads bound (HYD1 (AT1G20050); competitor AMI‐331 50 µM): 0 PSMs | Spectra (PSMs) AMI‐329 beads bound (RNA‐binding AT3G15010; competitor AMI‐331 5 µM): 0 PSMs | Spectra (PSMs) AMI‐329 beads bound (RNA‐binding AT3G15010; competitor AMI‐331 50 µM): 0 PSMs | Spectra (PSMs) AMI‐329 beads bound (CKL11 (AT4G14340); competitor AMI‐331 5 µM): 1 PSMs | Spectra (PSMs) AMI‐329 beads bound (CKL11 (AT4G14340); competitor AMI‐331 50 µM): 0 PSMs | Spectra (PSMs) AMI‐329 beads bound (NRPB3 (AT2G15430); competitor AMI‐331 5 µM): 0 PSMs | Spectra (PSMs) AMI‐329 beads bound (NRPB3 (AT2G15430); competitor AMI‐331 50 µM): 0 PSMs | Spectra (PSMs) AMI‐329 beads bound (Reductase C (AT2G41680); competitor AMI‐331 5 µM): 0 PSMs | Spectra (PSMs) AMI‐329 beads bound (Reductase C (AT2G41680); competitor AMI‐331 50 µM): 0 PSMs | Spectra (PSMs) AMI‐329 beads bound (CKL10 (AT3G23340); competitor AMI‐331 5 µM): 1 PSMs | Spectra (PSMs) AMI‐329 beads bound (CKL10 (AT3G23340); competitor AMI‐331 50 µM): 0 PSMs
